Data as given in patent publication US10195216B1, “Antimicrobial activity and oil compositions of Costus speciosus (KOEN)” (King Abdulaziz University, priority 2017, dated 2019).

Legend:
[1] = tested on: M. gypseum; assay: agar disc diffusion, inhibition zone; type: cell-based, Microsporum gypseum; details: diosgenin at 1.25 m
Method: (§1) M. gypseum, M. canis, C. albicans and C. tropicalis isolates were obtained from King Faisal Specialist Hospital & Research Centre-Jeddah, Saudi Arabia. They were cultured on sabaroud dextrose agar media (Oxoid CM 41) at 25° C. Antimicrobial activities of essential oils and plant extracts of Indian Costus. About 0.5 g of the testing compound was dissolved in 1.25 ml of a solvent (chloroform, ethanol and methanol) and it was cultured in sabaroud dextrose agar media and blood agar media using the agar disc diffusion method. Each media used were inoculated with 1 ml from a suspension of M. gypseum, M. canis and C. albicans for sabaroud dextrose agar and P. aeruginosa and S. aureus for blood agar. The fungi and yeast were incubated at 25° C. for 8 days, and 48 hours respectively and then tested at 37° C. for 24 hours. After that, the diameter of inhibition zones was measured in millimeters; Baker F J, Breach M R. Medical Microbiological Techniques, Butterworths 1980; Hasenekoglu H. Laboratory techniques for micro fungi. Ataturk University. Erzurum 1990 (both incorporated by reference).

[2] = tested on: C. albicans; assay: agar disc diffusion, inhibition zone; type: cell-based, Candida albicans; details: same extract concentrations
Method: as §1

[3] = tested on: C. tropicalis; assay: agar disc diffusion, inhibition zone; type: cell-based, Candida tropicalis; details: same extract concentrations
Method: as §1

melting point [°C]	Compound	antimicrobial activity in words [1]	antimicrobial activity in words [2]	antimicrobial activity in words [3]
195 to 200	CC1CC[C@@]2(OC1)O[C@H]1C[C@H]3[C@@H]4CC5OC56CCCC[C@]6(C)[C@H]4CC[C@]3(C)[C@H]1[C@@H]2C (stereo partly shown) [diosgenin epoxide, 5,6-Epoxyspirostane]	–	–	–
–	C[C@@H]1CC[C@@]2(OC1)O[C@H]1C[C@H]3[C@@H]4CC=C5C[C@@H](O)CC[C@]5(C)[C@H]4CC[C@]3(C)[C@H]1[C@@H]2C [Indian Costus diosgenin, (3β,25R)-spirost-5-en-3-ol]	effective	not as effective	not as effective
